According to patent publication US4875922A, “Pyrimidine derivatives” (Imperial Chemical Industries PLC, priority 1986, dated 1989):

What was measured:
Rice [1] = assay: Whole plant screen for plant growth regulator activity, rice (RC); type: in vivo, Rice (Ishikari); settings: 4000 ppm (4 kg/ha), visual score after 2-6 weeks
Method: (§1) Compounds 1 to 3 in Table 1 were tested for plant growth regulator activity against five species for various growth effects relevant to plant growth regulation.
(§2) The plant species used in this screen are presented in Table II with the leaf stage at which they were sprayed. Each chemical was applied at 4000 ppm (4 kg/ha in a 1000 l/ha field volume) using a tracksprayer and a SS8004E (Teejet) nozzle.
(§3) After spray the plants were grown in a glasshouse with 25° C. day/22° C. night temperatures and supplementary lighting was supplied when necessary (from mercury vapour lamps), to provide a 16 hour photoperiod. The exception to this were the temperate cereals, wheat and barley which were grown in 16° C. day/13° C. night temperatures.
(§4) After 2-6 weeks in the glasshouse, depending on the time of year, the plants were visually assessed for morphological characteristics. Formulation blanks were used as controls to assess the plants.
(§5) Additional compounds in Table I were tested for plant growth regulator activity using the method of Example 60 except that Tomato was included in the test as an additional species. Tomato, Ailsa Craig, was grown in a single 3 inch pot in peat and treated at the 2 to 21/2 leaves growth stage. The results were presented in Table IV in which Tomato is indicated by the code TO and the Key is otherwise as for Table III.

Rice [2] = assay: Intermediate Retardant Test, rice; type: in vivo, Rice (Ishikari); settings: Oryza sativa, 672 h, overall spray, approximately 28 days, Table VI, read-out: Percentage Reduction in Height of Rice (Compared to formulation blank)
Text: (§6) Three species are involved in this test RICE, SPRING-BARLEY and APPLES. The variety and growth stages at spray are outlined in Table V. Compounds were applied at 500 ppm and 2000 ppm respectively (0.5 kg and 2 kg/ha^-1 at a field volume of 1000 l/ha^-1) as an overall spray except in the case of certain tests on APPLES. This gives a foliar and root component in the test, i.e., this test will detect the activity of both root and foliar acting compounds. The intermediate retardant test on APPLES of which the results are given in Table IX was different, in that a foliar (only) spray at 2000 ppm was compared with a root drench, also at 2000 ppm. The rice was grown in 4" `paddy` pots, i.e., the roots and bottom of the stems are immersed in water under conditions corresponding to those in paddy fields. Spring barley and apples were grown in 4" pots. The plants were assessed for height to top-most ligule at approximately 28 days after treatment for spring barley and rice and for height to apex at approximately 28 days after the treatment for apples. In each case the result for the 500 ppm and 2000 ppm test for each compound is compared to the height of the formulation blank in that test, presented as a percentage reduction in height compared to the formulation blank.
(§7) The prior art compound was compared with compounds of the present invention in side-by-side comparisons using the Intermediate Retardant Test described in Example 62, and the results are given in Tables X to XII where `A` is the prior art compound, 2-methyl-1-isopropyl-1-(pyrimidin-5-yl)-propan-1-ol).

Wheat = assay: Whole plant screen for plant growth regulator activity, wheat (WW); type: in vivo, Wheat (Timmo); settings: WW, 4000 ppm (4 kg/ha), visual score after 2-6 weeks; for T = Tillering or side shooting: * = decrease in tillering
Method: as §1, §2, §3, §4, §5

Apples = assay: Intermediate Retardant Test, apples, foliar spray compared with root drench; type: in vivo, Apples (Red Delicious); settings: 672 h, approximately 28 days, Table IX, read-out: Percentage Reduction in Height of Apples (Compared to formulation blank); for percent reduction in plant height at 2000 ppm: 2000 ppm (Foliar); for percent reduction in plant height at 2000 µg/mL: soil, 2000 pmm (Root), root drench
Text: as §6, §7

Apple = assay: Whole plant screen for plant growth regulator activity, apple (AP); type: in vivo, Apple (Red Delicious); settings: 4000 ppm (4 kg/ha), visual score after 2-6 weeks
Method: as §1, §2, §3, §4, §5

Barley = assay: Whole plant screen for plant growth regulator activity, barley (BR); type: in vivo, Barley (Atem); settings: BR, 4000 ppm (4 kg/ha), visual score after 2-6 weeks; for T = Tillering or side shooting: * = decrease in tillering
Method: as §1, §2, §3, §4, §5

Spring Barley = assay: Intermediate Retardant Test, spring barley; type: in vivo, Spring Barley (Atem/kym); settings: Hordeum vulgare, 672 h, overall spray, approximately 28 days, Table VII, read-out: Percentage Reduction in Height of Spring Barley (Compared to formulation blank)
Text: as §6, §7

Tomato = assay: Whole plant screen for plant growth regulator activity, tomato (TO); type: in vivo, Tomato (Ailsa Craig); settings: 4000 ppm (4 kg/ha), visual score after 2-6 weeks
Method: as §2, §3, §4, §5
An astrisk (*) after a score under "T" (tillering) indicated a decrease in tillering.

Maize = assay: Whole plant screen for plant growth regulator activity, maize (MZ); type: in vivo, Maize (Earliking); settings: 4000 ppm (4 kg/ha), visual score after 2-6 weeks
Method: as §1, §2, §3
After 2-6 weeks in the glasshouse, depending on the time of year, the plants were visually assessed for morphological characteristics. Formulation blanks were used as controls to assess the plants. […]

| SMILES | I = Interligular or internodal length reduction (Rice [1]) | R = Retardation (Rice [1]) | Percent reduction in rice height vs formulation blank at 500 ppm (Rice [2]) | Percent reduction in rice height vs formulation blank at 2000 ppm (Rice [2]) | I = Interligular or internodal length reduction (Wheat) | R = Retardation (Wheat) | T = Tillering or side shooting (Wheat) | percent reduction in plant height at 2000 ppm (Apples) | percent reduction in plant height at 2000 µg/mL (Apples) | G = Greening effect (Apple) | I = Interligular or internodal length reduction (Apple) | R = Retardation (Apple) | G = Greening effect (Barley) | I = Interligular or internodal length reduction (Barley) | R = Retardation (Barley) | T = Tillering or side shooting (Barley) | percent reduction in plant height at 500 ppm (Spring Barley) | percent reduction in plant height at 2000 ppm (Spring Barley) | I = Interligular or internodal length reduction (Tomato) | R = Retardation (Tomato) | further results |
| --- | --- | --- | --- | --- | --- | --- | --- | --- | --- | --- | --- | --- | --- | --- | --- | --- | --- | --- | --- | --- | --- |
| CC(C)CCCC(O)(c1cncnc1)C(C)(C)C (centres unmarked) [Compound 17, 2,2-Dimethyl-1-(4-methylpentyl)-1-(pyrimidin-5-yl)-propan-1-ol] | 2 (31-60%) | 2 (31-60%) | 7% | 10% | 3 (61-100%) | 2 (31-60%) | 2 (31-60%) | 17% | 66% | 1 (10-30%) | 3 (61-100%) | 3 (61-100%) | 2 (31-60%) | 3 (61-100%) | 2 (31-60%) | 2 (31-60%) | 2% | 28% | 1 (10-30%) | 1 (10-30%) | G = Greening effect (Rice [1]): 1 (10-30%); T = Tillering or side shooting (Rice [1]; * = decrease in tillering): 1 (10-30%); G = Greening effect (Wheat): 2 (31-60%); G = Greening effect (Tomato): 1 (10-30%) |
| CC(C)C#CC(O)(c1cncnc1)C(C)C (centres unmarked) [Compound 9, 2-Methyl-1-(3-methylbut-1-yne)-1-(pyrimidin-5-yl)propan-1-ol] | 1 (10-30%) | 1 (10-30%) | 11% | 18% | 3 (61-100%) | 2 (31-60%) | 2 (31-60%) | 0% | 63% | 1 (10-30%) | 3 (61-100%) | 3 (61-100%) | 2 (31-60%) | 3 (61-100%) | 2 (31-60%) | 2 (31-60%) | 20% | 49% | 1 (10-30%) | 1 (10-30%) | A = Apical damage (Rice [1]): 1 (10-30%); G = Greening effect (Rice [1]): 1 (10-30%); G = Greening effect (Wheat): 2 (31-60%); G = Greening effect (Tomato): 1 (10-30%) |
| CC(C)CCC(O)(c1cncnc1)C(C)C (centres unmarked) [Compound 13, 2-Methyl-1-(3-methylbutyl)-1-(pyrimidin-5-yl)-propan-1-ol] | 2 (31-60%) | 2 (31-60%) | 8% | 9% | 3 (61-100%) | 2 (31-60%) | 1 (10-30%) | 7% | 70% | 2 (31-60%) | 3 (61-100%) | 3 (61-100%) | 2 (31-60%) | 3 (61-100%) | 2 (31-60%) | 2 (31-60%) | 2% | 11% | 2 (31-60%) | 2 (31-60%) | G = Greening effect (Rice [1]): 1 (10-30%) |
| CC(C)C(O)(C#CCCCCl)c1cncnc1 (centres unmarked) [Compound 8, 2-Methyl-1-(5-chloropen-1-yne)-1-(pyrimidin-5-yl)-propan-1-ol] | – | – | 43% | 54% | 3 (61-100%) | 3 (61-100%) | 3 (61-100%) | 6% | 49.3% | 2 (31-60%) | 3 (61-100%) | 3 (61-100%) | 2 (31-60%) | 2 (31-60%) | 3 (61-100%) | 1 (10-30%) | 31% | 63% | 3 (61-100%) | 3 (61-100%) | G = Greening effect (Wheat): 2 (31-60%); G = Greening effect (Tomato): 2 (31-60%); G = Greening effect (Maize): 1 (10-30%); I = Interligular or internodal length reduction (Maize): 3 (61-100%); R = Retardation (Maize): 3 (61-100%); T = Tillering or side shooting (Maize; * = decrease in tillering): 1 (10-30%) |
| CCC(C)CCC(O)(c1cncnc1)C(C)C (centres unmarked) [Compound 6, 2-Methyl-1-(3-methylpentyl)-1-(pyrimidin-5-yl)propan-1-ol] | 2 (31-60%) | 2 (31-60%) | 26% | 50% | 3 (61-100%) | 3 (61-100%) | 1 (10-30%) | 18.8% | 72.1% | – | – | – | 1 (10-30%) | 3 (61-100%) | 2 (31-60%) | – | 22% | 57% | 2 (31-60%) | 2 (31-60%) | G = Greening effect (Tomato): 2 (31-60%); G = Greening effect (Maize): 1 (10-30%); I = Interligular or internodal length reduction (Maize): 2 (31-60%); R = Retardation (Maize): 2 (31-60%) |
